Experimental data as given in PubChem BioAssay AID1963853 (Molecular Pharmacology Branch, DTP, NCI, 2024).

System: 266295-075-R-J1-PDC spheroid viability
Experiment: Anticancer human tumor 266295-075-R-J1-PDC patient-derived head and neck squamous carcinoma cell line growth inhibition [POLQ]
Details: spheroids with HUVEC and MSC; for IC50: curve of first compound; for viability, T/C: stronger effect = lower value
Experimental: Multicellular complex tumor spheroid response to Polymerase (POL) inhibitors (novobiocin, ART-558, RP6685) in combination with a variety of drugs and investigational agents in selected tumor cell lines
The POL inhibitors (novobiocin, ART-558, and RP6685) were evaluated both individually and in combination with standard of care and investigational anticancer small molecules within a complex spheroid model of solid tumors. . Complex spheroids include a stromal component modeled by human endothelial cells (HUVEC) and fibroblasts modeled by human mesenchymal stem cells (MSCs). The concentration ranges selected for each drug and investigational agent were based upon clinically achievable concentrations if the clinical Cmax of the agent was known.
Compounds. The drugs and investigational agents: novobiocin (NSC847541), ART-558 (NSC835418), RP-6685 (NSC848927), peposertib (NSC802822), ceralasertib (NSC780249), elimusertib (NSC800525), camonsertib (NSC841442), AZD-1390 (NSC803789), olaparib (NSC753686), talazoparib (NSC767125), rucaparib (NSC756644), sotorasib (NSC818433), MRTX-1133 (NSC836407), SN-38 (NSC673596), topotecan (NSC609699), epotoside (NSC141540), doxorubicin (NSC123127), gemcitabine (NSC613327), 5-fluorouracil (NSC19893), paclitaxel (NSC125973), vemurafenib (NSC761431), MSA-2 (NSC828583), SN-011 (NSC837082), adavosertib (NSC754352), prexasertib (NSC758257), carboplatin (NSC241240) and oxaliplatin (NSC266046), were obtained from the National Cancer Institute (NCI) Developmental Therapeutics Program Chemical Repository (21). The FDA-approved anticancer drug set is available from the Developmental Therapeutics Program at https://dtp.cancer.gov/organization/dscb/obtaining/. […] The stock solutions were prepared in dimethyl sulfoxide (DMSO, Sigma-Aldrich, St. Louis, MO, cat. D2650), except for the platinum compounds which were prepared in saline (Quality Biological, Gaithersburg, MD, cat. 114-055-101), at 800-fold the tested concentration and stored at -70 degrees C prior to their use. All drugs and investigational agents were tested over a range starting from a high concentration at or near the clinical Cmax and decreasing in half-log increments. If the clinical Cmax for an agent had not been determined, the highest concentration tested was 10 microM, except for SN-38, which was tested at a high concentration of 1 microM.
Cell Culture. All cells were maintained in an incubator at 37 degrees C and 5% CO2 with 95% humidity. The PDC lines were cultured according to standard operating procedures established by the NCI PDMR (https://pdmr.cancer.gov). Table 3 of the manuscript, lists the cell lines along with the number of the three cell types plated to form the mct-spheroids and media for tumor cell growth. After thawing, all PDC lines, except 997537-175-T-J1-PDC and 415267-285-R-J2-PDC, were cultured in Matrigel-coated flasks prepared with a working solution of 1X Ham's F-12 nutrient mix, without supplementation (Thermo Fisher Scientific, cat. 11765054), 100 U/mL penicillin-streptomycin (Thermo Fisher Scientific, cat. 15140122), and 2.5% Matrigel (Corning Inc., Corning, NY, cat. 354248) for the first three passages. The two PDC lines 997537-175-T-J1-PDC and 415267-285-R-J2-PDC were cultured on uncoated flasks. The 857933-349-R-J2-PDC line was cultured in 6C/Colon 1B media containing advanced DMEM/F-12 (Thermo Fisher Scientific, cat. 12634028), 10 mM HEPES (Thermo Fisher Scientific, cat. 15630080), 1X GlutaMAX supplement (Thermo Fisher Scientific, cat. 35050061), 0.1 mg/mL primocin (InvivoGen, San Diego, CA, cat. ant-pm-2), 10% defined fetal bovine serum, heat inactivated (HyClone Laboratories Inc., Logan, UT, cat. SH30070.03HI), 50% L-WRN conditioned media (ATCC, cat. CRL-3276), 1.25 mM N-Acetyl-L-cysteine (Sigma-Aldrich, cat. A9165), 10 mM nicotinamide (Sigma-Aldrich, cat. N0636), 1X B-27 supplement (Thermo Fisher Scientific, cat. 17504044), 1X N-2 supplement (Thermo Fisher Scientific, cat. […]
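Further: spheroids exposed to compounds for seven days before readout.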

COc1cccc2c1C(=O)c1c(O)c3c(c(O)c1C2=O)CC(O)(C(=O)CO)CC3OC1CC(N)C(O)C(C)O1 (configuration not stated) + COC1C(OC(N)=O)C(O)C(Oc2ccc3c(O)c(NC(=O)c4ccc(O)c(CC=C(C)C)c4)c(=O)oc3c2C)OC1(C)C was tested, and the IC50 (second compound 0.0316 µM) was 3.17 µM, the IC50 (second compound 0.1 µM) was 2.56 µM and the IC50 (second compound 0.316 µM) was 3.45 µM. The IC50 (second compound 1 µM) was 2.64 µM, the IC50 (second compound 3.16 µM) was 2.16 µM and the IC50 (second compound 10 µM) was 3.72 µM. It also gave a viability, T/C (second compound 0.0316 µM, first compound 0.0316 µM) of 95.5%, a viability, T/C (second compound 0.0316 µM, first compound 0.1 µM) of 104% and a viability, T/C (second compound 0.0316 µM, first compound 0.316 µM) of 82.4%. It also gave a viability, T/C (second compound 0.0316 µM, first compound 1 µM) of 75.8%, a viability, T/C (second compound 0.0316 µM, first compound 3.16 µM) of 51.8% and a viability, T/C (second compound 0.0316 µM, first compound 10 µM) of 2.47%. It also gave a viability, T/C (second compound 0.1 µM, first compound 0.0316 µM) of 107%, a viability, T/C (second compound 0.1 µM, first compound 0.1 µM) of 96% and a viability, T/C (second compound 0.1 µM, first compound 0.316 µM) of 74.2%. The viability, T/C (second compound 0.1 µM, first compound 1 µM) was 74.7%, the viability, T/C (second compound 0.1 µM, first compound 3.16 µM) was 50.4% and the viability, T/C (second compound 0.1 µM, first compound 10 µM) was 2.16%. It also gave a viability, T/C (second compound 0.316 µM, first compound 0.0316 µM) of 102%, a viability, T/C (second compound 0.316 µM, first compound 0.1 µM) of 96% and a viability, T/C (second compound 0.316 µM, first compound 0.316 µM) of 76.7%. For the same compound, the viability, T/C (second compound 0.316 µM, first compound 1 µM) was 74.8%, the viability, T/C (second compound 0.316 µM, first compound 3.16 µM) was 61.4% and the viability, T/C (second compound 0.316 µM, first compound 10 µM) was 2.49%. For the same compound, the viability, T/C (second compound 1 µM, first compound 0.0316 µM) was 103%, the viability, T/C (second compound 1 µM, first compound 0.1 µM) was 91.4% and the viability, T/C (second compound 1 µM, first compound 0.316 µM) was 77%. It also gave a viability, T/C (second compound 1 µM, first compound 1 µM) of 64.6%, a viability, T/C (second compound 1 µM, first compound 3.16 µM) of 57.5% and a viability, T/C (second compound 1 µM, first compound 10 µM) of 2.7%. For the same compound, the viability, T/C (second compound 3.16 µM, first compound 0.0316 µM) was 98.8%, the viability, T/C (second compound 3.16 µM, first compound 0.1 µM) was 90.4% and the viability, T/C (second compound 3.16 µM, first compound 0.316 µM) was 78.4%. For the same compound, the viability, T/C (second compound 3.16 µM, first compound 1 µM) was 68.7%, the viability, T/C (second compound 3.16 µM, first compound 3.16 µM) was 42.3% and the viability, T/C (second compound 3.16 µM, first compound 10 µM) was 2.41%. It also gave a viability, T/C (second compound 10 µM, first compound 0.0316 µM) of 99.5%, a viability, T/C (second compound 10 µM, first compound 0.1 µM) of 83.1% and a viability, T/C (second compound 10 µM, first compound 0.316 µM) of 83.1%. For the same compound, the viability, T/C (second compound 10 µM, first compound 1 µM) was 75%, the viability, T/C (second compound 10 µM, first compound 3.16 µM) was 62.2% and the viability, T/C (second compound 10 µM, first compound 10 µM) was 1.87%.
